Laboratory results published in patent publication US20140120232A1, “ACID TASTE/ACID SMELL-REDUCING AGENT” (T. HASEGAWA CO., LTD., priority 2011, published 2014).

Experiment: Sensory evaluation of orange juice containing the agent
Details: ten panels
Procedure: Sensory evaluation of each drink was carried out by ten panels. […] The piercing aroma characteristic to aldehydes is a characteristic aroma common to every aldehyde and refers to an irritant off-smell giving an image of deteriorated oils and fats, soap, metals, Houttuynia cordata, etc. The judgment of smell was performed by comparing the effects at different concentrations of the acid taste and/or acid smell-reducing agent, and a concentration giving the highest acid taste/acid smell quality was selected.
To commercially available 100% orange juice was added (Z,Z)-4,7-tridecadienal as the acid taste and/or acid smell-reducing agent of the present invention in concentrations shown in the following Table 12 to give orange juice containing the agent, followed by sensory evaluation as in Example 1.

## CCCCC/C=C\C/C=C\CCC=O [(Z,Z)-4,7-tridecadienal]
0.005 ppt
  A: number of panels, acid taste/acid smell extreme and cause irritation: 10
  B: number of panels, acid taste/acid smell slightly strong and slightly cause irritation: 0
  C: number of panels, acid taste/acid smell slightly unpleasant: 0
  Flavor judgment: number of panels who judged acid taste/acid smell quality the highest: 0
  N: number of panels, irritation of acid reduced to give a mild acid taste: 0
  X: number of panels, acid taste reduced but piercing odor characteristic to aldehydes unpleasant: 0
0.02 ppt
  A: number of panels, acid taste/acid smell extreme and cause irritation: 9
  B: number of panels, acid taste/acid smell slightly strong and slightly cause irritation: 1
  C: number of panels, acid taste/acid smell slightly unpleasant: 0
  Flavor judgment: number of panels who judged acid taste/acid smell quality the highest: 0
  N: number of panels, irritation of acid reduced to give a mild acid taste: 0
  X: number of panels, acid taste reduced but piercing odor characteristic to aldehydes unpleasant: 0
0.1 ppt
  A: number of panels, acid taste/acid smell extreme and cause irritation: 8
  B: number of panels, acid taste/acid smell slightly strong and slightly cause irritation: 1
  C: number of panels, acid taste/acid smell slightly unpleasant: 1
  Flavor judgment: number of panels who judged acid taste/acid smell quality the highest: 0
  N: number of panels, irritation of acid reduced to give a mild acid taste: 0
  X: number of panels, acid taste reduced but piercing odor characteristic to aldehydes unpleasant: 0
0.2 ppt
  A: number of panels, acid taste/acid smell extreme and cause irritation: 6
  B: number of panels, acid taste/acid smell slightly strong and slightly cause irritation: 2
  C: number of panels, acid taste/acid smell slightly unpleasant: 2
  Flavor judgment: number of panels who judged acid taste/acid smell quality the highest: 0
  N: number of panels, irritation of acid reduced to give a mild acid taste: 0
  X: number of panels, acid taste reduced but piercing odor characteristic to aldehydes unpleasant: 0
0.5 ppt
  A: number of panels, acid taste/acid smell extreme and cause irritation: 0
  B: number of panels, acid taste/acid smell slightly strong and slightly cause irritation: 2
  C: number of panels, acid taste/acid smell slightly unpleasant: 2
  Flavor judgment: number of panels who judged acid taste/acid smell quality the highest: 1
  N: number of panels, irritation of acid reduced to give a mild acid taste: 6
  X: number of panels, acid taste reduced but piercing odor characteristic to aldehydes unpleasant: 0
1 ppb
  A: number of panels, acid taste/acid smell extreme and cause irritation: 0
  B: number of panels, acid taste/acid smell slightly strong and slightly cause irritation: 0
  C: number of panels, acid taste/acid smell slightly unpleasant: 2
  Flavor judgment: number of panels who judged acid taste/acid smell quality the highest: 0
  N: number of panels, irritation of acid reduced to give a mild acid taste: 4
  X: number of panels, acid taste reduced but piercing odor characteristic to aldehydes unpleasant: 4
1 ppt
  A: number of panels, acid taste/acid smell extreme and cause irritation: 0
  B: number of panels, acid taste/acid smell slightly strong and slightly cause irritation: 2
  C: number of panels, acid taste/acid smell slightly unpleasant: 2
  Flavor judgment: number of panels who judged acid taste/acid smell quality the highest: 1
  N: number of panels, irritation of acid reduced to give a mild acid taste: 6
  X: number of panels, acid taste reduced but piercing odor characteristic to aldehydes unpleasant: 0
5 ppt
  A: number of panels, acid taste/acid smell extreme and cause irritation: 0
  B: number of panels, acid taste/acid smell slightly strong and slightly cause irritation: 1
  C: number of panels, acid taste/acid smell slightly unpleasant: 2
  Flavor judgment: number of panels who judged acid taste/acid smell quality the highest: 4
  N: number of panels, irritation of acid reduced to give a mild acid taste: 7
  X: number of panels, acid taste reduced but piercing odor characteristic to aldehydes unpleasant: 0
10 ppb
  A: number of panels, acid taste/acid smell extreme and cause irritation: 0
  B: number of panels, acid taste/acid smell slightly strong and slightly cause irritation: 0
  C: number of panels, acid taste/acid smell slightly unpleasant: 1
  Flavor judgment: number of panels who judged acid taste/acid smell quality the highest: 0
  N: number of panels, irritation of acid reduced to give a mild acid taste: 3
  X: number of panels, acid taste reduced but piercing odor characteristic to aldehydes unpleasant: 6
20 ppt
  A: number of panels, acid taste/acid smell extreme and cause irritation: 0
  B: number of panels, acid taste/acid smell slightly strong and slightly cause irritation: 0
  C: number of panels, acid taste/acid smell slightly unpleasant: 3
  Flavor judgment: number of panels who judged acid taste/acid smell quality the highest: 4
  N: number of panels, irritation of acid reduced to give a mild acid taste: 7
  X: number of panels, acid taste reduced but piercing odor characteristic to aldehydes unpleasant: 0
50 ppb
  A: number of panels, acid taste/acid smell extreme and cause irritation: 0
  B: number of panels, acid taste/acid smell slightly strong and slightly cause irritation: 0
  C: number of panels, acid taste/acid smell slightly unpleasant: 1
  Flavor judgment: number of panels who judged acid taste/acid smell quality the highest: 0
  N: number of panels, irritation of acid reduced to give a mild acid taste: 2
  X: number of panels, acid taste reduced but piercing odor characteristic to aldehydes unpleasant: 7
100 ppt
  A: number of panels, acid taste/acid smell extreme and cause irritation: 0
  B: number of panels, acid taste/acid smell slightly strong and slightly cause irritation: 0
  C: number of panels, acid taste/acid smell slightly unpleasant: 4
  Flavor judgment: number of panels who judged acid taste/acid smell quality the highest: 0
  N: number of panels, irritation of acid reduced to give a mild acid taste: 4
  X: number of panels, acid taste reduced but piercing odor characteristic to aldehydes unpleasant: 2
500 ppt
  A: number of panels, acid taste/acid smell extreme and cause irritation: 0
  B: number of panels, acid taste/acid smell slightly strong and slightly cause irritation: 0
  C: number of panels, acid taste/acid smell slightly unpleasant: 3
  Flavor judgment: number of panels who judged acid taste/acid smell quality the highest: 0
  N: number of panels, irritation of acid reduced to give a mild acid taste: 4
  X: number of panels, acid taste reduced but piercing odor characteristic to aldehydes unpleasant: 3
